Assay results published in patent US10023538B2, “Compounds, compositions and associated methods comprising 3-aryl quinolines” (Oregon Health & Science University, priority 2012, dated 2018).
Where two headings read alike, the source gives them in different places.

Assays:
P. falciparum strain 7G8 = experiment: Antiplasmodial fluorescence-based SyBr Green assay, strain 7G8; type: cell-based, Plasmodium falciparum
Method: (§1) The IC50 values listed in Table 1 were determined by the fluorescence-based SyBr Green assay described in Smilkstein (Smilkstein M, Antimicrob Agents Chemother 48, 1803-1806 (2004)). Values are the mean of at least two experiments, each performed in triplicate. […] NT=not tested.

P. falciparum strain D6 = experiment: Antiplasmodial fluorescence-based SyBr Green assay, strain D6; type: cell-based, Plasmodium falciparum
Method: as §1

P. falciparum strain Dd2 = experiment: Antiplasmodial fluorescence-based SyBr Green assay, strain Dd2; type: cell-based, Plasmodium falciparum
Method: as §1

[1] = system: P. falciparum strain Tm90.C2B; experiment: Antiplasmodial activity against strain Tm90.C2B; type: cell-based, Plasmodium falciparum
Method: as §1
Furthermore, Compound 1 was evaluated against the strain Tm90.C2B.

P. yoelii = experiment: In vivo efficacy, P. yoelii mouse model of malaria (Strain K model); set-up: species or system female CF1 mice; details: P. yoelii / CF1 mice
Method: The efficacy of Compound 1 in vivo using a P. yoelii mouse model of malaria (Strain K model) was studied. Female CF1 mice were inoculated intravenously with 1-2 million infected red blood cells obtained from infected donor animals. Infected cells were collected then randomly sorted into groups of four mice on Day 0. Drug administration began on Day 1. […] Both drugs were administered daily by gavage as the dihydrochloride salt dissolved in 100 μl of water for Days, 1, 2, 3, and 4. Blood films were prepared on Day 5 (the day after the final drug dose), fixed in methanol, stained with Giemsa, and viewed microscopically to assess parasitemia.

P. falciparum strains = experiment: Antiplasmodial IC50 across P. falciparum strains (average / range); type: cell-based, Plasmodium falciparum
Method: as §1

[2] = Heme binding affinity in solution (UV/visible titration, NMR); details: 20 mM phosphate buffer, pH 7.0, 25° C.; titration and NMR
Method: The binding affinity of Compound 1 and heme in solution was assessed as described by Kelly (Kelly, J X et al, Antimicrob Agents Chemother 46, 144-150 (2002); Kelly J X et al, Mol Biochem Parasitol 123, 47-54 (2002)). This assay correlates heme binding affinity and the mode of binding (i.e., binding to heme monomer or dimer) to intrinsic antimalarial activity in vitro and in vivo.
Association constants for heme-drug complexes were determined with all titrations conducted under aqueous conditions in 20 mM phosphate buffer, at pH 7.0 and 25° C. Titrations with compounds were performed by successive addition of aliquots of a 1 mM stock solution to a 10 μM heme solution at constant pH. All UV/visible spectral data was analyzed digitally with absorbance readings and concentrations corrected for dilution effects. The resulting titration curves were analyzed with Hill plot (Cantor and Schimmel, Biophysical Chemistry, W H Freeman and Co, New York, 1980) and non-linear curve fitting methods (Connors, Chemical Kinetics, VCH Publishers, New York, 1990). Titration curves were fit to the most accurate binding isotherm and stoichiometry.
Heme:drug interaction was assessed by NMR. NMR investigations involving Compound 1 binding to heme were performed as described in Kelly (Kelly, et al, supra).

[3] = Cytotoxicity vs. murine splenic lymphocytes; type: cell-based; details: mouse
hERG potassium channel = hERG potassium channel (Homo sapiens, UniProt Q12809); experiment: hERG channel inhibition, QPatch HT automatic parallel patch clamp; type: cell-based; details: hERG current expressed in mammalian cells, room temperature, tested at 1, 4, 12 μM in duplicate
Chain of hERG potassium channel (Q12809 whole entry): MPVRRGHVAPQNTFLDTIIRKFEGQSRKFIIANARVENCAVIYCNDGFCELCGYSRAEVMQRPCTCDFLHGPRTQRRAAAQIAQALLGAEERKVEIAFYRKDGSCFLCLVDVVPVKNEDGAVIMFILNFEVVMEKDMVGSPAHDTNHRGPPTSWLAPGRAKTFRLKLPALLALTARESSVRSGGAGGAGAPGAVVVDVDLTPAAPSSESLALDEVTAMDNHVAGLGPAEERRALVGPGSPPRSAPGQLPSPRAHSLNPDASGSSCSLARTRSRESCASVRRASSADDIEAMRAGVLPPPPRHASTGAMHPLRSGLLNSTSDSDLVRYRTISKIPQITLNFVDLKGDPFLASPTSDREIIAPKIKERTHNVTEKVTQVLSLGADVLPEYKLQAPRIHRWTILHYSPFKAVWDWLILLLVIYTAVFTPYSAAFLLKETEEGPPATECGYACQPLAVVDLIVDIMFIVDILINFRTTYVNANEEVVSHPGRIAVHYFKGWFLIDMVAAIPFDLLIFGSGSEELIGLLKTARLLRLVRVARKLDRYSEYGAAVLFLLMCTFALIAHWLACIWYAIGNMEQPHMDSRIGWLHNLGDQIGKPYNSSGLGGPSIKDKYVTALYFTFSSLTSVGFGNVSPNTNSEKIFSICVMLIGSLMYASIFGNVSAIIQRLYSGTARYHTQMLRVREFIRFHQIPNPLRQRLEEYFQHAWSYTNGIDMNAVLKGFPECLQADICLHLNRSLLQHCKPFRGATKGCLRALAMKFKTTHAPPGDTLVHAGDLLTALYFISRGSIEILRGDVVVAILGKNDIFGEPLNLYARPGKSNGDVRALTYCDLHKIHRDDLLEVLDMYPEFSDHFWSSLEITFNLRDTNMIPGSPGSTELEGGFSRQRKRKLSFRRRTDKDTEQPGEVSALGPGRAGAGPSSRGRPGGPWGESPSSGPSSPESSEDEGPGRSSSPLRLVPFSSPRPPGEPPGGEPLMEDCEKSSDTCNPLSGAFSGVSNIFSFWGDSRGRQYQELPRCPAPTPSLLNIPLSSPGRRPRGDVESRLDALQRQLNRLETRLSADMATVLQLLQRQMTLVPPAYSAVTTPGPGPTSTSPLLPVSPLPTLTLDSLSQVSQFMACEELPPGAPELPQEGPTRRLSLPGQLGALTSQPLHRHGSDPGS

[4] = Plasmodium falciparum, P. falciparum 7G8, multidrug resistant, mean of at least two experiments in triplicate, read-out: IC50 Values (nM) Strain 7G8
[5] = Plasmodium falciparum, D6; read-out: IC50 Values (nM) Strain D6
[6] = Plasmodium falciparum, P. falciparum Dd2, multidrug resistant, mean of at least two experiments in triplicate, read-out: IC50 Values (nM) Strain Dd2
[7] = P. falciparum 7G8, multidrug resistant, mean of at least two experiments in triplicate, read-out: IC50 Values (nM) Strain 7G8
[8] = P. falciparum D6, chloroquine sensitive; mean of at least two experiments in triplicate; read-out: IC50 Values (nM) Strain D6
[9] = P. falciparum Dd2, multidrug resistant, mean of at least two experiments in triplicate, read-out: IC50 Values (nM) Strain Dd2
[10] = Plasmodium falciparum, P. falciparum Tm90.C2B, multidrug and atovaquone resistant, unit inferred, read-out: IC50 value against strain Tm90.C2B
[11] = Plasmodium falciparum, 7G8, read-out: IC50 Values (nM) Strain 7G8
[12] = Plasmodium falciparum, D6, read-out: IC50 Values (nM) Strain D6
[13] = Plasmodium falciparum, DD2, read-out: IC50 Values (nM) Strain Dd2

SMILES	IC50 (P. falciparum strain 7G8; [4]) [nM]	IC50 (P. falciparum strain D6; [5]) [nM]	IC50 (P. falciparum strain Dd2; [6]) [nM]	further results
CC(C)(C)NCCCNc1c(-c2ccccc2)cnc2cc(Cl)ccc12 [Compound 3]	6.4	8.7	17	–
COc1ccc(-c2cnc3cc(Cl)ccc3c2NCCCNC(C)(C)C)cc1 [Compound 11]	20.6	9.5	11.7	–
CC(C)(C)NCCCNc1c(-c2ccc(F)cc2)cnc2cc(Cl)ccc12 [Compound 10]	–	–	–	IC50 (P. falciparum strain 7G8; [7]): 32.8 nM; IC50 (P. falciparum strain D6; [8]): 13.1 nM; IC50 (P. falciparum strain Dd2; [9]): 11.7 nM
CC(C)(C)NCCCNc1c(-c2ccc(C(F)(F)F)nc2)cnc2cc(Cl)ccc12 [Compound 5]	132	55.2	89	–
CC(C)(C)NCCCNc1c(-c2ccc(-c3ccccc3)cc2)cnc2cc(Cl)ccc12 [Compound 7]	1.4	0.9	2.9	–
CCN(CC)CCCC(C)Nc1c2ccc(Cl)cc2nc2ccc(OC)cc12 (stereo not shown) [Quinacrine, reference compound]	–	–	–	IC50 (P. falciparum strain 7G8; [11]): 9 nM; IC50 (P. falciparum strain D6; [12]): 5 nM; IC50 (P. falciparum strain Dd2; [13]): 10 nM
CC(C)(C)NCCCNc1c(-c2ccc(CN3CCOCC3)cc2)cnc2cc(Cl)ccc12 [Compound 15]	–	–	–	IC50 (P. falciparum strain 7G8; [7]): 0.9 nM; IC50 (P. falciparum strain D6; [8]): 0.8 nM; IC50 (P. falciparum strain Dd2; [9]): 0.9 nM
CC(C)(C)NCCCNc1c(-c2ccc(Br)cc2)cnc2cc(Cl)ccc12 [Compound 16]	–	–	–	IC50 (P. falciparum strain 7G8; [7]): 2.5 nM; IC50 (P. falciparum strain D6; [8]): < 2.5 nM; IC50 (P. falciparum strain Dd2; [9]): < 2.5 nM
CC(C)(C)NCCCNc1c(-c2ccc(Oc3ccc(OC(F)(F)F)cc3)cc2)cnc2cc(Cl)ccc12 [Compound 6]	1.6	2.3	3.3	–
CCN(CC)CCCNc1c(-c2ccc(OC(F)(F)F)cc2)cnc2cc(Cl)ccc12 [Compound 24]	–	–	–	IC50 (P. falciparum strain 7G8; [7]): 8.5 nM; IC50 (P. falciparum strain D6; [8]): 3.4 nM; IC50 (P. falciparum strain Dd2; [9]): 4.4 nM
CC(C)(C)NCCCNc1c(-c2ccc(-c3ccc(OC(F)(F)F)cc3)cc2)cnc2cc(Cl)ccc12 [Compound 8]	–	–	–	IC50 (P. falciparum strain 7G8; [7]): 8.3 nM; IC50 (P. falciparum strain D6; [8]): 5.3 nM; IC50 (P. falciparum strain Dd2; [9]): 5.9 nM
CC(C)(C)NCCCNc1c(-c2ccc(C(F)(F)F)cc2)cnc2cc(Cl)ccc12 [Compound 4]	9.7	4.8	11.9	–
CC(C)(C)NCCCNc1c(-c2ccc(Cl)cc2)cnc2cc(Cl)ccc12 [Compound 2]	5.8	8	15	–
O=C1C(O)=C([C@H]2CC[C@H](c3ccc(Cl)cc3)CC2)C(=O)c2ccccc21 [Atovaquone, reference compound]	0.1	0.1	0.1	IC50 [1, 10]: 7700 nM
CC(C)(C)NCCCNc1c(-c2ccc(OC(F)(F)F)cc2)cnc2cc(Cl)ccc12 [Compound 1, N1-(tert-butyl)-N3-(7-chloro-3-(4-(trifluoromethoxy)phenyl)-quinolin-4-yl)-propane-1,3-diamine]	1.3	0.9	1.4	ED50 (P. yoelii; gavage daily Days 1-4, parasitemia Day 5, drugs given as salts): 0.25 mg/kg/day; Cure of animals (P. yoelii; at 16 and 64 mg/kg/day): cured all animals; IC50 (P. falciparum strains; Plasmodium falciparum, average over strains, read-out: Avg IC50 values vs P. falciparum strains): 1.2 nM; Affinity for free heme [2]: strong affinity for free heme; IC50 [3]: 4980 nM; IC50 (hERG potassium channel): 4000 nM; IC50 [1, 10]: 1.3 nM
CC(C)(C)NCCNc1c(-c2ccc(OC(F)(F)F)cc2)cnc2cc(Cl)ccc12 [Compound 26]	–	–	–	IC50 (P. falciparum strain 7G8; [7]): 4.5 nM; IC50 (P. falciparum strain D6; [8]): 0.6 nM; IC50 (P. falciparum strain Dd2; [9]): 4.9 nM
CCN(CC)CCCC(C)Nc1ccnc2cc(Cl)ccc12 (stereo not shown) [Chloroquine, reference compound]	–	–	–	Cure of animals (P. yoelii; at dosages as high as 64 mg/kg/day): did not cure any of the animals; IC50 (P. falciparum strain 7G8; [11]): 78 nM; IC50 (P. falciparum strain D6; [12]): 9.2 nM; IC50 (P. falciparum strain Dd2; [13]): 120 nM; IC50 ([1]; Plasmodium falciparum, TM90, read-out: IC50 value against strain Tm90.C2B): 106 nM
CCN(CC)CCCC(C)Nc1c(C)cnc2cc(Cl)ccc12 (stereo not shown) [Sontochin, reference compound]	–	–	–	IC50 (P. falciparum strains; range over Table 1 strains, read-out: IC50 values against the drug resistant strains of P. falciparum (range)): 8 to 20 nM; IC50 (P. falciparum strain 7G8; [7]): 20 nM; IC50 (P. falciparum strain D6; [8]): 8 nM; IC50 (P. falciparum strain Dd2; [9]): 19 nM; IC50 ([1]; P. falciparum Tm90.C2B, multidrug and atovaquone resistant, unit inferred, read-out: IC50 value against strain Tm90.C2B): 19.1 nM

More lines, main results first:

IC50 (P. falciparum strain 7G8; [4]) [nM]	IC50 (P. falciparum strain D6; [5]) [nM]	IC50 (P. falciparum strain Dd2; [6]) [nM]	SMILES	further results
11.7	5.1	7	CN(C)c1ccc(-c2cnc3cc(Cl)ccc3c2NCCCNC(C)(C)C)cc1 [Compound 12]	–
26.3	13.5	21.8	CC(C)(C)NCCCNc1c(-c2ccc(C#N)cc2)cnc2cc(Cl)ccc12 [Compound 17]	–
5.6	2.4	4.9	CC(C)(C)NCCCNc1c(-c2ccc(OC(F)F)cc2)cnc2cc(Cl)ccc12 [Compound 13]	–
11.1	3.5	7.8	CCN(CC)CCCC(C)Nc1c(-c2ccc(OC(F)(F)F)cc2)cnc2cc(Cl)ccc12 (stereo not shown) [Compound 25]	–
30	19	87	C=C[C@H]1C[N@@]2CC[C@H]1C[C@H]2[C@H](O)c1ccnc2ccc(OC)cc12 [Quinine, reference compound]	IC50 [1, 10]: 96 nM
< 2.5	0.7	1.8	FC(F)(F)Oc1ccc(-c2cnc3cc(Cl)ccc3c2NCCC2CCCCN2)cc1 (stereo not shown) [Compound 22]	–
93	35	80	CCN(CC)CCNc1c(-c2ccc(OC(F)(F)F)cc2)cnc2cc(Cl)ccc12 [Compound 23]	–
< 2.5	< 2.5	< 2.5	CC(C)(C)NCCCNc1c(-c2cccc(OC(F)(F)F)c2)cnc2cc(Cl)ccc12 [Compound 18]	–
8.2	4.4	6.7	CC(C)(C)NCCCNc1c(-c2ccc(N3CCOCC3)cc2)cnc2cc(Cl)ccc12 [Compound 14]	–
